From BindingDB's records for PubMed 2795469 (Ciba-Geigy, 1989) come the findings set out here.

This test deals with Adenosine receptor A2a (Rattus norvegicus, UniProt P30543).

Usually Ki stands for the dissociation constant of the complex between target and ligand, obtained from inhibition or displacement.

Adenosine receptor A2a, sequence (P30543 whole entry): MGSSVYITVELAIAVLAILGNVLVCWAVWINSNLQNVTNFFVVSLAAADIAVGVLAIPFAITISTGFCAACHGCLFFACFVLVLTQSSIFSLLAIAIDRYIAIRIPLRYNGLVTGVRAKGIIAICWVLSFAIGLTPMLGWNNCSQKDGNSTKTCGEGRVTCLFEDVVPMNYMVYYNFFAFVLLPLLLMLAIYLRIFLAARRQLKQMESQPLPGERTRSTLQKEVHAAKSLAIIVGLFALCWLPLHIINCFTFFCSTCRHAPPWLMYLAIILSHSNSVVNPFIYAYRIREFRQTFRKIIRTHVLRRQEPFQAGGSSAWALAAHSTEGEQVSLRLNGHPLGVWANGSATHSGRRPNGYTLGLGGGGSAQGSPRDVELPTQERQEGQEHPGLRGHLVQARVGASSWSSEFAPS

In turn, `Nc1nc(Nc2ccccc2)nc2c1ncn2[C@@H]1O[C@H](CO)[C@H](O)C1O` (stereo partly specified) [(CV 1808) 2-(6-Amino-2-phenylamino-purin-9-yl)-5-hydroxymethyl-tetrahydro-furan-3,4-diol] registered a Ki of 115 nM. This lies in the sub-micromolar range.
